Consider one compound from patent US7846697B2, “Method of producing a low molecular weight organic compound in a cell” (BLMaps, priority 2003, dated 2010).

For the experiment, the system named is E. coli strain JM109 transformants. The experiment can be described thus: Toxicity of vanillin with constitutive expression of UGT85B1 or AS, growth on plates.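 Note: +++ strong growth ++ growth + weak growth − no growth.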 It counts as cell-based. From the text:
For experimentation with constitutive expression of UGT85B1 and AS, the E. coli strains JM109, and K01418 were transformed with the constructed plasmids pJH 430, pJH431, pJH432, pJH433, pJH434, pJH435, pJH436, pJH437, pJH438, pJH439, pJH440, and pJH441, and pKOL30 as control, employing standard transformation protocols. Transformants were selected for ampicilin resistance, and two transformants of each E. coli strain with each plasmid were kept for expression experiments. The E. coli transformants were inoculated from plate cultures into 2 ml liquid growth medium (LB medium containing ampicilin at 100 μg/ml), and allowed to grow for 20 hours at 37° C. The precultures were diluted 100 times 10^4 times and 10^6 times in growth medium, and 4 μl droplets of these cell suspensions were applied to the surface of Petri dishes containing solid LB-ampicilin medium containing varying concentrations of vanillin (based on the STV determinations described above). The plates were incubated at 37° C. for 24 hours, after which growth on the various concentrations of vanillin was monitored and recorded.

As for `COc1cc(C=O)ccc1O` [Vanillin, vanillin], the growth entry reads like this: (JM109 [pJH430], 0.08% vanillin) “+++”; (JM109 [pJH430], 0.12% vanillin) “+++”; (JM109 [pJH430], 0.16% vanillin) “++”; (JM109 [pJH431], 0.08% vanillin) “+++”; (JM109 [pJH431], 0.12% vanillin) “+++”; (JM109 [pJH431], 0.16% vanillin) “++”. Moreover, the growth entry (JM109 [pJH432], 0.08% vanillin) was “+++”; the growth entry (JM109 [pJH432], 0.12% vanillin) is “+++”; the growth entry (JM109 [pJH432], 0.16% vanillin) is reported as “+”; the growth entry (JM109 [pJH433], 0.08% vanillin) is given as “+++”; the growth result (JM109 [pJH433], 0.12% vanillin) is on record as “+++”; the growth entry (JM109 [pJH433], 0.16% vanillin) is recorded as “+”. The growth result is, setting by setting: (JM109 [pKOL30], 0.08% vanillin) “+++”; (JM109 [pKOL30], 0.12% vanillin) “++”; (JM109 [pKOL30], 0.16% vanillin) “−”.
